The source made the active and inactive calls.
How the values were obtained:
[1] = molecular target: Protein Tat (Human immunodeficiency virus type 1 group M subtype B (isolate HXB2)(HIV-1), UniProt P04608); assay type: functional;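 note: tat binding to TAR RNA read out by fluorescence polarization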
[2] = molecular target: T1, Bcl-2-like protein 10 (Homo sapiens, UniProt Q9HD36); experiment: displacers of TR3 peptide from Bcl-B, primary screen, selectivity assay for Bfl-1 inhibitor project, biochemical, fluorescence polarization, FITC-TR3 peptide (AID 748);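 note: fluorescence polarization from a fluorescein-labelled TR3 peptide binding purified Bcl-B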
T1 sequence (Q9HD36 whole entry): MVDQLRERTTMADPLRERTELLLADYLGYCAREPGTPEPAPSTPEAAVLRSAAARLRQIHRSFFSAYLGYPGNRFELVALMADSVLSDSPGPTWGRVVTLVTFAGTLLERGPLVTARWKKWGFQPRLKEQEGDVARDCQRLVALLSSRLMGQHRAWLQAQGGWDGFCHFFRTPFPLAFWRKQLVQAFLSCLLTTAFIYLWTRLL

[3] = molecular target: Eukaryotic translation initiation factor 4E (Mus musculus, UniProt P63073); experiment: eIF4E–eIF4G protein interaction inhibitors, dose response, biochemical, TR-FRET (AID 855); assay type: functional;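 note: potency for disrupting eIF4E binding to eIF4GI seen as loss of FRET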
Chain of Eukaryotic translation initiation factor 4E (P63073 whole entry): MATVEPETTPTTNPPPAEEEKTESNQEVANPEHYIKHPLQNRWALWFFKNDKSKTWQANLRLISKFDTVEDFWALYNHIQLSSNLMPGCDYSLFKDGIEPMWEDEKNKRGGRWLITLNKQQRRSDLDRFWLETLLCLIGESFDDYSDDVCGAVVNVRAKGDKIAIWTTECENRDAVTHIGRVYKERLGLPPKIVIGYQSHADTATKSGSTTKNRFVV

[4] = molecular target: Sphingosine 1-phosphate receptor 2 (Homo sapiens, UniProt O95136); experiment: Dose Response Cell Based Assay for Agonists of the S1P2 Receptor. [Related pubchem assays: 729, 736, 843 ]; assay type: functional
Chain of Sphingosine 1-phosphate receptor 2 (O95136 whole entry): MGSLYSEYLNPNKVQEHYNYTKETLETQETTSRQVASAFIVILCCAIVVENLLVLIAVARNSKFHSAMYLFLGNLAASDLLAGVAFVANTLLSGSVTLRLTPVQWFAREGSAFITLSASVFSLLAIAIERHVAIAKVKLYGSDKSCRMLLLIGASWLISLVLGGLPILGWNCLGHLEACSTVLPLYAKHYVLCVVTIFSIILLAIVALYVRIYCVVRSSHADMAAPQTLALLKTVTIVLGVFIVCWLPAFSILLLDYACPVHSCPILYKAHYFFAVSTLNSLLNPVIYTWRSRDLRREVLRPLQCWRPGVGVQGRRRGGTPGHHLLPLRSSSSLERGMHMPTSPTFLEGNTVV

[5] = molecular target: Genome polyprotein (dengue virus type 2, UniProt P29990); experiment: Dengue-2 NS5 methyltransferase inhibitors, primary screen, biochemical, confirmation dose response (AID 588689); assay type: functional
Chain of Genome polyprotein (P29990 2492-3391 limits assumed): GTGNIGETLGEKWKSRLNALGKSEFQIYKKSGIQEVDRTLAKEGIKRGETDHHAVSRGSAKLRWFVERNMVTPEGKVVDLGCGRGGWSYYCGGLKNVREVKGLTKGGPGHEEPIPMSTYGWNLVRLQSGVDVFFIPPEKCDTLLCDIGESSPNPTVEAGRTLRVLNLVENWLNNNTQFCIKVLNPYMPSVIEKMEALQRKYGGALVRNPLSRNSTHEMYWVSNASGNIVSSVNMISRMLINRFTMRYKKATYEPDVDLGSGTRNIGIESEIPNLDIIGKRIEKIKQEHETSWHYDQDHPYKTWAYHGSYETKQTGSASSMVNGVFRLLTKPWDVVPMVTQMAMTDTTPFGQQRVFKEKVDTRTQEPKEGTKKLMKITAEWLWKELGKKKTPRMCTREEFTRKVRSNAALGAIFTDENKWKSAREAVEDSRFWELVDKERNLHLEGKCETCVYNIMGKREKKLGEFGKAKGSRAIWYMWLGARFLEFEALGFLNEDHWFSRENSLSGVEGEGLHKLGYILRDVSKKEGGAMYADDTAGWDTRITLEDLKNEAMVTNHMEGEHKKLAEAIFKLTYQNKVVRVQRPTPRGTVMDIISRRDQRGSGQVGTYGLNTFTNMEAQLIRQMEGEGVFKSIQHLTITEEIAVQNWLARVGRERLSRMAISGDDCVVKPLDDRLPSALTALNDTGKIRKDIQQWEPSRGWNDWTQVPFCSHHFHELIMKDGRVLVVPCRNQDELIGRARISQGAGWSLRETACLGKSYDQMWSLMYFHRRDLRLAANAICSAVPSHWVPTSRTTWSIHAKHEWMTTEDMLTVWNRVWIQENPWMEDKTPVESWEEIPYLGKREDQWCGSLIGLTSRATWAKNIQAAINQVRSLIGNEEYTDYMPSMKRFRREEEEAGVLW

[6] = molecular target: T2, Protein RecA (Mycobacterium tuberculosis, UniProt P9WHJ3); experiment: Fluorescence Cell-Free Homogeneous Dose Retest to Identify Inhibitors of RecA-Intein Splicing Activity. [Related pubchem assays (depositor defined):AID2097, AID2223, AID489010, AID492950]; assay type: functional
T2 sequence (P9WHJ3 whole entry): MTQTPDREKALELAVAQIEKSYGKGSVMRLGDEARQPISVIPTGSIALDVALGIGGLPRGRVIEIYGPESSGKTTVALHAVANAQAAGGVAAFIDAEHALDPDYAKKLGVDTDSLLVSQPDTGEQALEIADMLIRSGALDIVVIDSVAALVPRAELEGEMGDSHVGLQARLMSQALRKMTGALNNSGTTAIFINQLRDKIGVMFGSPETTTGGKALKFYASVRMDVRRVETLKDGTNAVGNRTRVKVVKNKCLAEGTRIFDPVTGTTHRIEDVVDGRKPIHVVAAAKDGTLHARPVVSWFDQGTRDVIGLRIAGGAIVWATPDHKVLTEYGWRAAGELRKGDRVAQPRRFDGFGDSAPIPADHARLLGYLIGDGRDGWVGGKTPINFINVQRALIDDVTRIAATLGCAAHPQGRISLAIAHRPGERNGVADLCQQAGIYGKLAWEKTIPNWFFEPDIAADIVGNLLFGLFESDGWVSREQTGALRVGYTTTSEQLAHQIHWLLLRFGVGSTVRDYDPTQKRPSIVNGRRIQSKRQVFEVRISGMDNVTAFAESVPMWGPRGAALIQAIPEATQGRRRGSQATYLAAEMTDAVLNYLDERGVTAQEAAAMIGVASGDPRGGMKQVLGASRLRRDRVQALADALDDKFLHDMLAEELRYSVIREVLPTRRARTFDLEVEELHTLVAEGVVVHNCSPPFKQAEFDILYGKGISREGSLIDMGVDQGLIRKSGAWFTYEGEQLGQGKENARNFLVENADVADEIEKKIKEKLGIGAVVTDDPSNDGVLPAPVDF

[7] = molecular target: T3, Aminopeptidase N (Plasmodium falciparum FcB1/Columbia, UniProt O96935); experiment: P. falciparum M1AAP inhibitors, biochemical, fluorogenic H-Leu-NHMec substrate, 1536-well (AID 1445); design: species or system Plasmodium falciparum 3D7, 3D7
T3 sequence (O96935 whole entry): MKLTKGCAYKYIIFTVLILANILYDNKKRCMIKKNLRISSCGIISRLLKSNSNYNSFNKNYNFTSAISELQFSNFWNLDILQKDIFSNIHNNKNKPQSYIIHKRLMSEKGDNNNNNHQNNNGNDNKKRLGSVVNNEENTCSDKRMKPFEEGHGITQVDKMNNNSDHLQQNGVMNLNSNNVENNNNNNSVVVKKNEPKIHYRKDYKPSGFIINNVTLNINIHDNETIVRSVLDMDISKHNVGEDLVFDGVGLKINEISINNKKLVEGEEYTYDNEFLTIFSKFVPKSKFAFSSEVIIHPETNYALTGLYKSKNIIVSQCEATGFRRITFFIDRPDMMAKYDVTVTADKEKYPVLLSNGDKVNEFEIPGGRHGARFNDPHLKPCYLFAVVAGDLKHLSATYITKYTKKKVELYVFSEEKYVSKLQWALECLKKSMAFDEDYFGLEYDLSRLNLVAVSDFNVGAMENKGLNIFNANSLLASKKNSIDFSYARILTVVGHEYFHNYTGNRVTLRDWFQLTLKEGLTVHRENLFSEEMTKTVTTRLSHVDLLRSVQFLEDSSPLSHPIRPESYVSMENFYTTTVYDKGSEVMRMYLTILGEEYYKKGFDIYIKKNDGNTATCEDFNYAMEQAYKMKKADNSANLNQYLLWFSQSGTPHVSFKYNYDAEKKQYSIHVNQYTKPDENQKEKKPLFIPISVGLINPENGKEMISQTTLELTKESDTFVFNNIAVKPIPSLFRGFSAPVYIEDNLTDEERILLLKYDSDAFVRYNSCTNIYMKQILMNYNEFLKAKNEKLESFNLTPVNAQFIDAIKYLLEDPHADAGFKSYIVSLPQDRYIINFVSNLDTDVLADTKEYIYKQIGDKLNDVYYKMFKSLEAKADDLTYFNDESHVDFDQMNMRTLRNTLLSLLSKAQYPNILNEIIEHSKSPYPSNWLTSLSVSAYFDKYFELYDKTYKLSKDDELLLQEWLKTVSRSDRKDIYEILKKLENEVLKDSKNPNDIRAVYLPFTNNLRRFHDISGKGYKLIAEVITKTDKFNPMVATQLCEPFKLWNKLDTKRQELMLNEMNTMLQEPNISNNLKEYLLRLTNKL

[8] = molecular target: Bifunctional protein GlmU (Mycobacterium tuberculosis, UniProt P9WMN3); experiment: Inhibitors of Mycobacterial Glucosamine-1-phosphate acetyl transferase (GlmU). Secondary screen.; design: species or system Mycobacterium tuberculosis H37Rv
Chain of Bifunctional protein GlmU (P9WMN3 whole entry): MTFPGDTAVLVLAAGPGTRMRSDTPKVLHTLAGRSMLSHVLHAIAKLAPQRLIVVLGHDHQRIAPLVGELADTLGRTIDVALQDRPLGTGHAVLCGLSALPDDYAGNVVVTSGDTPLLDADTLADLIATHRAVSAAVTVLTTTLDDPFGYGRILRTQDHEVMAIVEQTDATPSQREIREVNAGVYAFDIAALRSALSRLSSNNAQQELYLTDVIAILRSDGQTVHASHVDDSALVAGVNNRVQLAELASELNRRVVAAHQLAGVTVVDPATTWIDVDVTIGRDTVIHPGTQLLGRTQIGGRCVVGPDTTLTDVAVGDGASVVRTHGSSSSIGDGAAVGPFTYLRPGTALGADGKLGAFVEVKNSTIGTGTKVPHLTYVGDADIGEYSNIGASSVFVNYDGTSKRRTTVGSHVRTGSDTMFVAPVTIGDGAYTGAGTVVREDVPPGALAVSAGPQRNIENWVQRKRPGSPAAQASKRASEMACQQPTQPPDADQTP

[9] = molecular target: T4, Replicative DNA helicase DnaB (Mycobacterium tuberculosis, UniProt P9WMR3); experiment: DnaB intein splicing inhibitors, dose response, biochemical, cell-free fluorescence (AID 449749); assay type: functional
T4 sequence (P9WMR3 whole entry): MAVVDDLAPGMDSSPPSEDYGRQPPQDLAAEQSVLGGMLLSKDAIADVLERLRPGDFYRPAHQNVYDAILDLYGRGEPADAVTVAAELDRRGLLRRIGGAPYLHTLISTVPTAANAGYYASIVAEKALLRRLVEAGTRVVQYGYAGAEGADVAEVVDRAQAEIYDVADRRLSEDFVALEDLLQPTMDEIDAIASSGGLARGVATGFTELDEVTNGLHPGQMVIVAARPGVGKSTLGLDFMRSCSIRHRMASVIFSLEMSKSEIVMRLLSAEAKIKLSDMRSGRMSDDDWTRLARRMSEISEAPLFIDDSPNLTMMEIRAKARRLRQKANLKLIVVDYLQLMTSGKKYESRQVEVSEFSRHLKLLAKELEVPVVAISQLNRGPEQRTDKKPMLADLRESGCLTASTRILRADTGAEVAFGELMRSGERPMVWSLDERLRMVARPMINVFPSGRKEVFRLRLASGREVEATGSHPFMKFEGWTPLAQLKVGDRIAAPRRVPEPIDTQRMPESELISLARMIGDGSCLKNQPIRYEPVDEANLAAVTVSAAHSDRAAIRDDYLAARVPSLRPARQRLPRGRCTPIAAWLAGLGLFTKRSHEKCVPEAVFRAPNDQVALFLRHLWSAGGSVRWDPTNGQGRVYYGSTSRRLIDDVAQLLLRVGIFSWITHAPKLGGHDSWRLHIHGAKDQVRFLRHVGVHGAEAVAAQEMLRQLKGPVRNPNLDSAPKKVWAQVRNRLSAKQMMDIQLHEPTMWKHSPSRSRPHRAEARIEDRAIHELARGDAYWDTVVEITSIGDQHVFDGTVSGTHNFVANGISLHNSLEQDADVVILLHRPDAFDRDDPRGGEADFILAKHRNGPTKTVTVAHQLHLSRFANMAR

Chain of Protein Tat (P04608 whole entry): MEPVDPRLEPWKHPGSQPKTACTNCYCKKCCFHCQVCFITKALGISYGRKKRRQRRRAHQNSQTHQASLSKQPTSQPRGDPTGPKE

O=C1c2ccccc2CC1Sc1nnc(-c2ccccn2)o1 (centres undefined)
IC50 [1]: > 100 µM (active) | IC50 [2]: > 100 µM (inactive)

CCOc1cccc(OCCCCn2ccnc2)c1
IC50 [3]: > 64 µM (inactive) | EC50 [4]: > 50 µM (not active)

CC1=NN(c2ccc(Cl)c(C(=O)O)c2)C(=O)/C1=C\c1ccc(-c2ccc(C(=O)O)cc2)o1
IC50 [5]: 19.4 µM (active) | EC50 [6]: 0.4 µM (active) | IC50 [7]: 2.41 µM (active) | IC50 [8]: 94.1 µM (active) | AC50 [9]: 0.484 µM (active)
